Test results taken from patent US9187458B2, “Cyanoquinoline derivatives” (Tianjin Hemay Bio-Tech Co., LTD., priority 2010, dated 2015).

How the values were obtained:
BT-474 cells = experiment: BT-474 Cell Growth Inhibition Test (SRB Assay); type: cell-based, human; conditions: 70 h incubation; for IC50 / inhibition at 1 µM: Homo sapiens; for inhibition at 1 µM: BT-474, 70 h, read-out: Growth Inhibition Ratio (%); for inhibition at 1 µM / Growth Inhibition Ratio (%): compound 1 μM
Outline: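 Human breast tumour BT-474 cells (1×10^5/ml seeding, overnight) exposed to compound 70 h at 37 °C, 5% CO2; TCA-fixed, SRB-stained, dye dissolved in 10 mM Tris and OD read at 570 nm. Inhibition ratio = (PC−n)/(PC−NC)×100%; IC50 is the concentration giving 50% inhibition, from fitted curves.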

LoVo cells = experiment: LoVo Cell Growth Inhibition Test (MTT Assay); type: cell-based; conditions: Homo sapiens, 72 h incubation
Procedure: LoVo Cell Growth Inhibition Test (MTT Assay)
1. Cell strains: LoVo (human intestinal cancer cell strains);
1. A plate (10 cm) of cells in logarithmic growth phase normally cultured was collected;
2. The culture solution was sucked out. The plate was washed with 5 ml of PBS 1-2 times;
3. PBS was sucked out. 2 ml of 0.25% pancreatin was added to infiltrate the cells for 1 min;
4. The pancreatin was sucked out. The culture plate was placed in an incubator. Digestion was carried out for about 4 min at 37° C.;
5. 4 ml of complete culture solution was added in the culture plate to stop the digestion. The cells were carefully scoured with micropipette (1 ml) to give a uniform cell suspension. The suspension was implanted into a 96-well cell culture plate by 3000-4000 cells/100 μl per well. The culture plate was incubated overnight under 5% CO2 at 37° C. In day 2, 100 μl of culture solution comprising a compound was added into each well, and further incubated for 72 h under 5% CO2 at 37° C.
6. The culture solution was sucked out;
7. 100 μl of serum-free culture solution containing 0.5 mg/ml MTT was added in each well, and incubated for 4 h;
8. The culture solution was carefully sucked out;
9. 100 μl of DMSO was added in each well and vibrated to dissolve;
10. OD values were determined at 490 nM.
1. Calculation of Relative Inhibition Ratio The inhibition ratio of a compound on cell growth=(PC−n)/(PC−NC)×100%
IC50: Concentration of a compound where inhibition ratio was 50%. IC50 values were fitted with Origin7.5.

NCI-H460 cells = experiment: NCI-H460 Cell Growth Inhibition Test (MTT Assay); type: cell-based; conditions: Homo sapiens, 72 h incubation
Outline: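 Cells seeded at 2500 per well, left overnight, then exposed to compound for 72 h at 37 °C, 5% CO2. Viability by MTT (0.5 mg/ml, 3 h), DMSO-dissolved, OD 490 nm; inhibition ratio = (PC−n)/(PC−NC)×100%, IC50 from curve fit.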

Sk-Br-3 cells = experiment: Sk-Br-3 Cell Growth Inhibition Test (SRB Assay); type: cell-based; conditions: Homo sapiens, 91 h incubation
Outline: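 Sk-Br-3 cells seeded at 10000/well in DMEM with 10% FBS were incubated overnight, then exposed to compound for 91 h at 37° C, 5% CO2. TCA-fixed cells were SRB-stained and OD read at 570 nm. GI50, TGI and LC50 were derived from growth relative to time-zero, untreated and blank wells.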

Compound	IC50 (BT-474 cells)	inhibition at 1 µM (BT-474 cells)	IC50 (LoVo cells)	IC50 (NCI-H460 cells)	GI50 (Sk-Br-3 cells)	Growth Inhibition Ratio (%) (BT-474 cells)
C#Cc1cccc(Nc2c(C#N)cnc3cc(O[C@H]4CCOC4)c(NC(=O)/C=C/CN(C)C)cc23)c1 [Example 140, (S,E)-N-(3-CYANO-4-(3-ETHYNYLPHENYLAMINO)-7-(TETRAHYDROFURAN-3-YL-OXY)QUINOLIN-6-YL)-4-(DIMETHYLAMINO)-BUT-2-ENAMIDE]	33 nM	85%	8800 nM	1100 nM	22 nM	
CN(C)C/C=C/C(=O)Nc1cc2c(Nc3ccc(OCc4ccccc4Cl)c(Cl)c3)c(C#N)cnc2cc1OC1CCOC1 (stereo not drawn) [Example 10, (E)-N-(4-(4-(2-CHLOROBENZYLOXY)-3-CHLOROPHENYLAMINO)-3-CYANO-7-(TETRAHYDROFURAN-3-YL-OXY)QUINOLIN-6-YL)-4-(DIMETHYLAMINO)-BUT-2-ENAMIDE]	9.9 nM		2000 nM	1700 nM	6 nM	
CN(C)C/C=C/C(=O)Nc1cc2c(Nc3ccc(OCc4ccccn4)c(Cl)c3)c(C#N)cnc2cc1O[C@H]1CCOC1 [Example 138, (S,E)-N-(4-(3-CHLORO-4-(PYRIDIN-2-YL-METHOXY)PHENYLAMINO)-3-CYANO-7-(TETRAHYDROFURAN-3-YL-OXY)QUINOLIN-6-YL)-4-(DIMETHYLAMINO)-BUT-2-ENAMIDE]	3 nM	82%	2100 nM	2200 nM	3.8 nM	
CN(C)C/C=C/C(=O)Nc1cc2c(Nc3cccc(Br)c3)c(C#N)cnc2cc1OC1CCOC1 (stereo not drawn) [Example 7, (E)-N-(4-(3-BROMOPHENYLAMINO)-3-CYANO-7-(TETRAHYDROFURAN-3-YL-OXY)QUINOLIN-6-YL)-4-(DIMETHYLAMINO)-BUT-2-ENAMIDE]	309 nM		7000 nM	940 nM	213 nM	
Cc1ccccc1COc1ccc(Nc2c(C#N)cnc3cc(OC4CCOC4)c(NC(=O)/C=C/CN(C)C)cc23)cc1Cl (stereo not drawn) [Example 17, (E)-N-(4-(4-(2-METHYLBENZYLOXY)-3-CHLOROPHENYLAMINO)-3-CYANO-7-(TETRAHYDROFURAN-3-YL-OXY)QUINOLIN-6-YL)-4-(DIMETHYLAMINO)-BUT-2-ENAMIDE]	17 nM		2000 nM	1500 nM	7 nM	
CN(C)C/C=C/C(=O)Nc1cc2c(Nc3ccc(F)c(Cl)c3)c(C#N)cnc2cc1O[C@H]1CCOC1 [Example 142, (S,E)-N-(4-(3-CHLORO-4-FLUOROPHENYLAMINO)-3-CYANO-7-(TETRAHYDROFURAN-3-YL-OXY)QUINOLIN-6-YL)-4-(DIMETHYLAMINO)-BUT-2-ENAMIDE]	133 nM	89%	8830 nM	1040 nM	117 nM	
CN(C)C/C=C/C(=O)Nc1cc2c(Nc3ccc(OCc4ccc(Cl)cc4)c(Cl)c3)c(C#N)cnc2cc1OC1CCOC1 (stereo not drawn) [Example 16, (E)-N-(4-(4-(4-CHLOROBENZYLOXY)-3-CHLOROPHENYLAMINO)-3-CYANO-7-(TETRAHYDROFURAN-3-YL-OXY)QUINOLIN-6-YL)-4-(DIMETHYLAMINO)-BUT-2-ENAMIDE]	35 nM	72%	1800 nM	1100 nM	36 nM	
C#Cc1cccc(Nc2c(C#N)cnc3cc(OC4CCOC4)c(NC(=O)/C=C/CN(C)C)cc23)c1 (stereo not drawn) [Example 5, (E)-N-(3-CYANO-4-(3-ETHYNYLPHENYLAMINO)-7-(TETRAHYDROFURAN-3-YL-OXY)QUINOLIN-6-YL)-4-(DIMETHYLAMINO)-BUT-2-ENAMIDE]	41 nM		8570 nM	1200 nM	24 nM	85%
CN(C)C/C=C/C(=O)Nc1cc2c(Nc3ccc(OCc4cccc(F)c4)c(Cl)c3)c(C#N)cnc2cc1OC1CCOC1 (stereo not drawn) [Example 9, (E)-N-(4-(4-(3-FLUOROBENZYLOXY)-3-CHLOROPHENYLAMINO)-3-CYANO-7-(TETRAHYDROFURAN-3-YL-OXY)QUINOLIN-6-YL)-4-(DIMETHYLAMINO)-BUT-2-ENAMIDE]	5.2 nM		1580 nM	1700 nM	15 nM	78%
